Assay: Viscosity of aqueous solution of constituent material (E-type viscometer)
Type: physicochemical
Settings: for Water absorption promoter, Viscosity: aqueous solution of 5 mass % at 37° C., Examples 1-3, 7, 10-12 glycerin, other Examples the promoter other than glycerin; for Antiadhesive agent, Viscosity: aqueous solution of 5 mass % of the antiadhesive agent at 37° C.
Procedure: Tables 1 and 2 shown the constituent materials of the intestinal collapse-controlling layer, the gel-forming layer and the antiadhesive layer of the orally-administered agents obtained in the respective Examples and the respective Comparative Examples and the contents thereof. […] Furthermore, the viscosity of the water absorption promoter in the Table 1 and the viscosity of the antiadhesive agent in the Table 2 denote a viscosity at 37° C. of an aqueous solution of 5 mass % of the water absorption promoter and the antiadhesive agent, respectively. Each viscosity was measured with an E-type viscometer (a product of Tokimec, Inc.).

SMILES	Water absorption promoter, Viscosity	Antiadhesive agent, Viscosity
OC[C@@H](O)[C@@H](O)[C@H](O)[C@H](O)CO [Man, mannitol]	0.87 mPa · s	0.87 mPa · s
OC[C@@H](O)[C@H](O)[C@@H](O)CO [Xyl, xylitol]	1.08 mPa · s	0.87 mPa · s

— patent publication US20110182954A1, “ORALLY-ADMINISTERED AGENT” (LINTEC Corporation, priority 2008, published 2011)
